This note sets out measurements from patent publication US20100179200A1, “2-OXOTHIAZOLIDINE 4-CARBOXYLIC ACID COMPOUNDS FOR PROMOTING DESQUAMATION OF THE SKIN” (SOCIETE L'OREAL, S.A., priority 2000, published 2010).

Molecules are shown by their SMILES.

For one series, the system named is corneodesmosine. Description: Evaluating desquamation by measuring the degradation of corneodesmosines (immunoblot of stratum corneum acetonic powders). The class given is biochemical, human. The following applies: aqueous solution containing 2% of active agent, pH 8.0, incubation 17 h at 30° C., versus control without active agent. An excerpt: Corneodesmosine is one of the major markers of desquamation of the corneodesmosome. It is studied by immunoblotting after separation by electrophoresis and transfer onto a membrane.
The mouse monoclonal antibody G36-19 is specific for corneodesmosine; it fauns part of a series of antibodies directed against epidermal differentiation antigens, produced after immunizing a mouse with a homogenate of human plantar horny layer, and then characterized (Serre G. et al., J. Invest. Dermatol. 1991; 97(6):1061-72).
Varnish-stripping operations are carried out on the lower legs of volunteers (modification of the procedure by Lundström A. and Egelrud T., Acta Derm. Venereol. (Stockholm) 71, 471-474, 1991). […]
The samples and also a Rainbow (Amersham Pharmacia Biotech) low molecular weight standard at 1/3 are separated by electrophoresis on gel containing 12% acrylamide for 30 minutes at 100 V and then for 1 hour at 200 V. After the electrophoresis, the proteins are transferred onto an Immobilon-P membrane (Millipore) for 3 hours at 60 V. The membrane is then incubated for twice 15 minutes in TBS-TL buffer: 25 mM Tris, 0.15M NaCl pH 7.2, 0.05% Tween 20, 0.5% skimmed milk powder, in order to block the non-specific sites. […] The chemiluminescence of the corneodesmosine bands is measured with the FluorS Multimager (Biorad). The 33 and 46 kD bands are quantified with the Quantity-one software (Biorad). […]

The nature of series [1]: Solubility of procysteine. The format is physicochemical.

As for `O=C1N[C@H](C(=O)O)CS1` [Procysteine, L-2-oxothiazolidine-4-carboxylic acid], the “Percentage increase in corneodesmosine degradation” value in the series with corneodesmosine is 77%. Also, in series [1] (ethanol), the solubility in ethanol entry is reported as “greater than 10%”. In addition, the solubility in water entry in series [1] (water) is “greater than 4%”.
